Patent US20160185717A1, “COMPOUNDS WITH ANTIBACTERIAL ACTIVITY” (FUNDACIÓN MEDINA. CENTRO DE EXCELENCIA EN INVESTIGACIÓN DE …, priority 2013, published 2016)
Values after ≈ are worked out from the molar mass of the structure shown.

Tests used:
E. coli 219 = experiment: Broth microdilution MIC; type: cell-based, Escherichia coli; settings: E. coli 219, ΔAcrAB::Tn903kan
Description: (§1) Antibacterial activity of compounds MDN-0057, MDN-0058, MDN-0059 and MDN-0060 was evaluated using the broth microdilution methodology. This method is used to determine minimum inhibitory concentrations (MICs) which are defined as the lowest concentration of an antimicrobial compound that will inhibit the visible growth of a microorganism after overnight incubation.
(§2) In the microbroth dilution assay, microorganisms were selected by streaking bacteria culture from a cryovial into Mueller Hinton II (MHII) agar plate(s) and incubate overnight at 37° C. Thereafter, 3 to 5 characteristic fresh colonies were selected and suspended in 25 mL of MHII broth media for 2 hours shaking at 220 rpm. The 2 hour broth cultures were adjusted to an optical density of 0.111 at 660 nm and then diluted to 1:100 in order to obtain assay inoculums.
(§3) The four compounds evaluated were serially diluted in 100% DMSO with a dilution factor of 2 to provide 10 compound concentrations starting at 8 mg/mL.
(§4) For the assays, 90 μL/well of the appropriated diluted inoculum were mixed with 1.6 μL/well of each compound concentration and 8.4 μL/well of MHII broth media, resulting in an additional dilution of these compounds to yield concentrations in the assay wells from 128 μg/mL to 0.25 μg/mL. After that, the assay plates were read in a Tecan Ultraevolution spectrophotometer at 612 nm for T0 (zero time). Then, the plates were statically incubated at 37° C. for 20 hours. After incubation, they were shaken in a DPC Micromix-5 and read again for Tf (final time). Percentage of growth inhibition was calculated using the following normalization:
(§5) % Inhibition=[1-[(TfSample-T0Sample)−(TfBlank-T0blank)/(TfGrowth-T0Growth)−(TfBlank-T0blank)]×100. • Where, • T0 Sample=the absorbance of the strain growth in the presence of sample measured at zero time (before incubation). • Tf Sample=the absorbance of the strain growth in the presence of sample measured at final time (after incubation) • T0 Growth=the absorbance of the strain growth in the absence of sample measured at zero time (before incubation). • Tf Growth=the absorbance of the strain growth in the absence of sample measured at final time (after incubation). • T0 Blank=the absorbance of the broth medium (blank) measured at zero time (before incubation). • Tf Blank=the absorbance of the broth medium (blank) measured at final time (after incubation).

E. coli ATCC 25922 = experiment: Broth microdilution MIC; type: cell-based, Escherichia coli; settings: E. coli ATCC 25922, wild type
Description: as §1, §2, §3, §4, §5

A. baumannii 2443 = experiment: Broth microdilution MIC; type: cell-based, Acinetobacter baumannii; settings: A. baumannii 2443, Clinical isolate
Description: as §1, §2, §3, §4, §5

A. baumannii 2444 = experiment: Broth microdilution MIC; type: cell-based, Acinetobacter baumannii; settings: A. baumannii 2444, ΔadellJK
Description: as §1, §2, §3, §4, §5

A. baumannii 2445 = experiment: Broth microdilution MIC; type: cell-based, Acinetobacter baumannii; settings: A. baumannii 2445, ΔadeABC
Description: as §1, §2, §3, §4, §5

A. baumannii 2446 = experiment: Broth microdilution MIC; type: cell-based, Acinetobacter baumannii; settings: A. baumannii 2446, ΔadeABC, ΔadellJK
Description: as §1, §2, §3, §4, §5

A. baumannii 5973 = experiment: Broth microdilution MIC; type: cell-based, Acinetobacter baumannii; settings: A. baumannii 5973, Clinical isolate
Description: as §1, §2, §3, §4, §5

A. baumannii ATCC 19606 = experiment: Broth microdilution MIC; type: cell-based, Acinetobacter baumannii; settings: A. baumannii ATCC 19606, Clinical isolate
Description: as §1, §2, §3, §4, §5

[1] = test system: A. baumannii ATCC BAA-747; experiment: Broth microdilution MIC; type: cell-based, Acinetobacter baumannii; settings: A. baumannii ATCC BAA-747, Clinical isolate
Description: as §1, §2, §3, §4, §5

P. aeruginosa 839 = experiment: Broth microdilution MIC; type: cell-based, Pseudomonas aeruginosa; settings: P. aeruginosa 839, ΔMexAB-OprM
Description: as §1, §2, §3, §4, §5

P. aeruginosa ATCC 27853 = experiment: Broth microdilution MIC; type: cell-based, Pseudomonas aeruginosa; settings: P. aeruginosa ATCC 27853, wild type
Description: as §1, §2, §3, §4, §5

K. pneumoniae 21 = experiment: Broth microdilution MIC; type: cell-based, Klebsiella pneumoniae; settings: K. pneumoniae 21, permeable strain
Description: as §1, §2, §3, §4, §5

K. pneumoniae 847 = experiment: Broth microdilution MIC; type: cell-based, Klebsiella pneumoniae; settings: K. pneumoniae 847, Clinical isolate
Description: as §1, §2, §3, §4, §5

S. aureus ATCC 29213 = experiment: Broth microdilution MIC; type: cell-based, Staphylococcus aureus; settings: for MIC: S. aureus ATCC 29213, wild type
Description: as §1, §2, §3, §4, §5

[2] = test system: Escherichia coli acrAB::Tn903 (CB-219); experiment: Micro RI (resistance) bioassay on E. coli CB-219; type: cell-based
Description: (§6) The frequency of resistance to MDN-0057 and MDN-0058 was assessed on Escherichia coli acrAB::Tn903 (CB-219) and wild type (WT) Acinetobacter baumannii (ATCC BAA-747). For this purpose, the Minimum Inhibitory Concentration of MDN-0057 versus each strain was determined by broth microdilution as described in Clinical Laboratory Standards Institute publication M07-A9, Vol. 32, No. 2., “Methods for Dilution Antimicrobial Susceptibility Tests for Bacteria that Grow Aerobically; Approved Standard—Ninth Edition,” January 2012. Six-well plates containing Mueller Hinton II agar (5 mL per well) were prepared with MDN-0057 or MDN-0058 at concentrations 4-fold and 8-fold above the MIC. Cultures were grown to late log phase and spread on the agar. Plates were incubated at 37° C. and examined after one and two days of incubation.
(§7) Six to eight isolates from each species were obtained by re-streaking growth from the plates on antibiotic-free tryptic soy agar plates, and MICs of MDN-0057 versus the isolates were subsequently determined. MICs of the E. coli isolates were elevated at least 16-64-fold relative to their parent strain, CB-219.

[3] = test system: wild type (WT) Acinetobacter baumannii (ATCC BAA-747); experiment: Resistance bioassay on A. baumannii; type: cell-based
Description: as §6, §7

[4] = test system: RNA synthesis in E. coli acrAB::Tn903; experiment: Macromolecular labeling assay, RNA synthesis; type: cell-based, Escherichia coli; settings: at up to 8-fold the MIC, [3H] uridine
Description: (§8) The macromolecular synthesis assay, in which the inhibition of the intracellular building blocks of macromolecules are measured, provides guidance for understanding the broad MOA of compounds
(§9) The inhibitory effect on synthesis of macromolecules in the lipid, cell wall, DNA, RNA and protein synthesis pathways was determined in growing cells of E. coli acrAB::Tn903. Cells were grown at 35° C. overnight on Trypticase Soy agar, and this culture was used to inoculate 15 ml of Mueller Hinton broth II (MHB). The culture was grown to early exponential growth phase (OD600=0.2 to 0.3) while incubating in a shaker at 35° C. and 200 rpm.
(§10) Cells in early exponential phase were exposed to MDN-0057, and their incorporation of radioactive precursors in each pathway was determined. Rifampicin, Ciprofloxacin, Tetracycline, Imipenem and Irgasan were included as positive controls for inhibition of RNA, DNA, protein, cell wall and lipid synthesis, respectively. (FIG. 1)
(§11) DNA, RNA, and protein synthesis: When cells reached early exponential phase, 100 μL of culture was added to triplicate wells containing various concentrations of MDN-0057 or control antibiotics (2.5 μL) at 40× the final concentration in 100% DMSO or deionized water (dH2O). […] After washing five times with 200 μL per well of cold 5% TCA, the filters were allowed to dry, and then counted using a Packard Top Count microplate scintillation counter.

[5] = test system: DNA synthesis in E. coli acrAB::Tn903; experiment: Macromolecular labeling assay, DNA synthesis; type: cell-based, Escherichia coli; settings: at up to 8-fold the MIC, [3H] thymidine
Description: as §8, §9, §10, §11

[6] = test system: protein synthesis in E. coli acrAB::Tn903; experiment: Macromolecular labeling assay, protein synthesis; type: cell-based, Escherichia coli; settings: at up to 8-fold the MIC, [3H] leucine
Description: as §8, §9, §10, §11

[7] = test system: lipid synthesis in E. coli acrAB::Tn903; experiment: Macromolecular labeling assay, lipid synthesis; type: cell-based, Escherichia coli; settings: at up to 8-fold the MIC, [3H] glycerol
Description: as §8, §9, §10
Lipid synthesis: Bacterial cells were grown to early exponential growth phase in MHB and 100 μL was added to 1.5 mL eppendorf tubes (in triplicate) containing various concentrations of MDN-0057 or control antibiotics as described above. Following a 5 min incubation at room temperature, [3H] glycerol was added at 0.5 μCi per reaction. […] Samples were then counted via liquid scintillation counting.

[8] = test system: cell wall synthesis in E. coli acrAB::Tn903; experiment: Macromolecular labeling assay, cell wall synthesis; type: cell-based, Escherichia coli
Description: as §8, §9
Cells in early exponential phase were exposed to MDN-0057, and their incorporation of radioactive precursors in each pathway was determined. […]
Cell wall synthesis: Bacterial cells in early exponential growth phase were transferred to M9 minimal medium and added to 1.5 ml eppendorf tubes (100 μl/tube) containing various concentrations of MDN-0057 or control antibiotics (2.5 μl) at 40× the final concentration in 100% DMSO or dH2O as described above. […] After washing three times with 5 ml of 0.1% SDS, the filters were rinsed two times with 5 mL of dH2O, allowed to dry, and then counted using a Beckman LS3801 liquid scintillation counter.

[9] = E. coli_219, Micro RI, Isolate #1_4X
[10] = E. coli_219, Micro RI, Isolate #2_8X
[11] = E. coli_219, Micro RI, Isolate #3_4X
[12] = E. coli_219, Micro RI, Isolate #4_4X
[13] = E. coli_219, Micro RI, Isolate #5_8X
[14] = six to eight isolates re-streaked from the plates

Row | SMILES | MIC (E. coli 219) | MIC (E. coli ATCC 25922) | MIC (A. baumannii 2443) | MIC (A. baumannii 2444) | MIC (A. baumannii 2445) | MIC (A. baumannii 2446) | MIC (A. baumannii 5973) | MIC (A. baumannii ATCC 19606) | MIC [1] | MIC (P. aeruginosa 839) | MIC (P. aeruginosa ATCC 27853) | MIC (K. pneumoniae 21) | MIC (K. pneumoniae 847) | MIC against S. aureus (No activity) (S. aureus ATCC 29213) | MIC (S. aureus ATCC 29213) | MIC [2, 9] | MIC [2, 10] | MIC [2, 11] | MIC [2, 12] | MIC [2, 13] | also measured
1 | [C-]#[N+]C(=C)C(Cc1ccc(OC)cc1)([N+]#[C-])C1CC(O)C=CC1OC(=O)CO (centres unmarked) [MDN-0058] | 0.25 to 0.5 µg/mL | 16 µg/mL (≈ 41.8 µM) | 2 µg/mL (≈ 5.23 µM) | 0.25 to 1 µg/mL | 2 to 8 µg/mL | <0.06 µg/mL | 0.25 µg/mL (≈ 0.654 µM) | 2 to 8 µg/mL | 1 to 16 µg/mL | 1 to 4 µg/mL | 64 µg/mL (≈ 167 µM) | 0.5 µg/mL (≈ 1.31 µM) | 64 µg/mL (≈ 167 µM) | 128 µg/mL (≈ 335 µM) | >128 µg/mL | 0.25 µg/mL (≈ 0.654 µM) | 0.25 µg/mL (≈ 0.654 µM) | 0.25 µg/mL (≈ 0.654 µM) | 0.25 µg/mL (≈ 0.654 µM) | 0.25 µg/mL (≈ 0.654 µM) | MIC ([2]; E. coli_219, Parent): 0.25 to 0.5 µg/mL
2 | [C-]#[N+]C(=C)C(Cc1ccc(OC)cc1)([N+]#[C-])C1CC(O)C=CC1OC(C)=O (centres unmarked) [MDN-0060] | – | – | – | – | – | – | 1 to 2 µg/mL | – | – | – | 32 to 64 µg/mL | – | – | – | – | – | – | – | – | – | –
3 | [C-]#[N+]C(=C)C(Cc1ccc(OC)cc1)([N+]#[C-])C1CC(O)CCC1OC(C)=O (centres unmarked) [MDN-0059] | – | – | – | – | – | – | 0.5 to 1 µg/mL | – | – | – | 16 µg/mL (≈ 43.4 µM) | – | – | – | – | – | – | – | – | – | –
4 | [C-]#[N+]C(=C)C(Cc1ccc(OC)cc1)([N+]#[C-])C1CC(O)CCC1OC(=O)CO (centres unmarked) [MDN-0057] | 0.125 to 0.5 µg/mL | 16 to 64 µg/mL | 4 µg/mL (≈ 10.4 µM) | 0.25 µg/mL (≈ 0.65 µM) | 2 µg/mL (≈ 5.2 µM) | <0.06 µg/mL | 0.25 µg/mL (≈ 0.65 µM) | 2 to 4 µg/mL | 2 to 4 µg/mL | 1 to 2 µg/mL | 2 to 8 µg/mL | 0.25 µg/mL (≈ 0.65 µM) | 64 µg/mL (≈ 166 µM) | 128 µg/mL (≈ 333 µM) | >128 µg/mL | 0.25 µg/mL (≈ 0.65 µM) | 0.25 µg/mL (≈ 0.65 µM) | 0.25 µg/mL (≈ 0.65 µM) | 0.25 µg/mL (≈ 0.65 µM) | 0.25 µg/mL (≈ 0.65 µM) | Growth on agar containing compound (frequency of resistance) ([2]; E. coli acrAB::Tn903, 4-fold and 8-fold above the broth MIC, after 48 hours of incubation): pinpoint colonies that were too numerous to count; MIC ([2]; E. coli_219, Parent): 0.125 to 0.5 µg/mL; Elevation of MICs of the E. coli isolates relative to parent strain CB-219 [2, 14]: 16-64 fold; Growth on agar containing compound (frequency of resistance) ([3]; A. baumannii, 4-fold and 8-fold above the broth MIC, after 24 hours of incubation): a lawn of colonies was apparent; MICs of the A. baumannii isolates compared with parent strain A. baumannii BAA-747 [3, 14]: not significantly different; Inhibition of RNA synthesis [4]: Little or no inhibition; Inhibition of DNA synthesis [5]: Little or no inhibition; Inhibition of protein synthesis [6]: Little or no inhibition; Inhibition of lipid synthesis [7]: Little or no inhibition; Maximum inhibition of cell wall synthesis ([8]; at 2 to 8-fold the MIC, [14C] N-acetylglucosamine, apparent dose-response): ca. 75%; Inhibition of Macromolecular Synthesis (FIG. 1 legend) ([8]; at 2× MIC, strain E. coli acrAB::Tn903): signal for Cell Wall Biosynthesis
